Laboratory results: patent US9061030B2, “sGC stimulators” (IRONWOOD PHARMACEUTICALS, INC., priority 2010, dated 2015)
pEC50: −log10 of the molar value.

System: Thoracic aortic rings
Test: Thoracic aortic rings assay
Parameters: species or system rat
Settings: for inhibition at 1 µM: 1 μM compound, read-out: Percent Relaxation at 1 μM; for inhibition at 1 µM / inhibition at 3 µM / inhibition at 10 µM: rat thoracic aortic rings contracted with 100 ng/mL phenylephrine; for inhibition at 3 µM: 3 μM compound, read-out: Percent Relaxation at 3 μM; for inhibition at 10 µM: 10 μM compound, read-out: Percent Relaxation at 10 μM; for pEC50: relaxation of rat thoracic aortic rings contracted with 100 ng/mL phenylephrine, read-out: Aortic Ring EC50
Protocol: Thoracic aortic rings were dissected from anesthetized (isoflurane) male Sprague-Dawley rats weighing 275-299 g. Tissues were immediately transferred to ice-cold Krebs-Henseleit solution, which had been aerated with 95% O2 and 5% CO2 for 30 minutes. Following removal of connective tissue, aortic sections were cut into 4 rings (˜2 mm each) and suspended on 2 L-shaped hooks, with one hook fixed at the bottom of the tissue bath (Schuler Organ Bath, Harvard Apparatus) and the other connected to a force transducer (F30 Force Transducer, Harvard Apparatus). Baths contained Krebs Henseleit solution (10 mL) heated to 37° C. and aerated with 95% O2 and 5% CO2. Rings were brought to an initial tension of 0.3-0.5 g and gradually raised to a resting tension of 1.0 g over 60 minutes. Rings were rinsed with Krebs Henseleit solution (heated to 37° C. and aerated with 95% 02 and 5% CO2) at 15 minute intervals until a stable baseline was obtained. Rings were considered to be stable after a resting tension of 1.0 g was maintained (for approximately 10 minutes) without need for adjustment. Rings were then contracted with 100 ng/mL phenylephrine by adding 100 μL of a 10 μg/mL phenylephrine stock solution. Tissues achieving a stable contraction were then treated in a cumulative, dose dependent manner with test compounds prepared in dimethylsulfoxide (DMSO). In some cases, tissues were rinsed three times over a 5 minute period with Krebs-Heinseleit's solution (heated to 37° C. and aerated with 95% 02 and 5% CO2), allowed to stabilize at baseline, and then used for characterization of other test articles or DMSO effects. All data were collected using the HSE-ACAD software provided by Harvard Apparatus. Percent relaxation effects were calculated in Microsoft Excel using the recorded tension value of 100 ng/mL phenylephrine treatment as 0% inhibition and, after washing the tissue with buffer, the original resting tension of tissue is used as 100% inhibition. EC50 values were calculated from concentration-response curves generated with GraphPad Prism Software.
The biological data for some of the compounds of Formula IA and Formula IB, in comparison with the prior art compound, BAY 41-2272, as the reference compound, determined by the thoracic aorta ring assay are presented in Table 6 below.

pEC50 | SMILES | inhibition at 1 µM [%] | inhibition at 3 µM [%] | inhibition at 10 µM [%]
5.52 to 5.70 | Fc1ccccc1Cn1nc(-c2ncccn2)nc1-c1cocn1 [Compound I-46] | 20 to 40 | 60 to 80 | 80 to 100
5.70 to 6.00 | Fc1ccccc1Cn1nc(-c2cscn2)nc1-c1nccs1 [Compound I-40] | 20 to 40 | 60 to 80 | 100 to 120
5.70 to 6.00 | Nc1ccnc(-c2nc(-c3nccs3)n(Cc3ccccc3F)n2)n1 [Compound I-48, 2-(1-(2-fluorobenzyl)-5-(thiazol-2-yl)-1H-1,2,4-triazol-3-yl)pyrimidin-4-amine] | 40 to 60 | 80 to 100 | 100 to 120
> 6.00 | COC(=O)N(C)c1c(N)nc(-c2nc(-c3nccs3)n(Cc3ccccc3F)n2)nc1N [Compound I-61, methyl 4,6-diamino-2-(1-(2-fluorobenzyl)-5-(thiazol-2-yl)-1H-1,2,4-triazol-3-yl)pyrimidin-5-yl(methyl)carbamate] | 60 to 80 | 80 to 100 | –
> 6.00 | Nc1ccnc(-c2nc(-c3nccs3)n(Cc3ccccc3F)n2)c1 [Compound I-44] | 80 to 100 | 100 to 120 | 100 to 120
5.70 to 6.00 | Nc1ccnc(-c2nc(-c3cscn3)n(Cc3ccccc3F)n2)c1 [Compound I-53, 2-(1-(2-fluorobenzyl)-5-(thiazol-4-yl)-1H-1,2,4-triazol-3-yl)pyridin-4-amine] | 20 to 40 | 80 to 100 | 100 to 120
5.52 to 5.70 | Fc1ccccc1Cn1nc(-c2ncccn2)nc1-c1nccs1 [Compound I-30] | 20 to 40 | 60 to 80 | 100 to 120
> 6.00 | Fc1ccccc1Cn1nc(-c2nccs2)nc1-c1cscn1 [Compound I-41] | 80 to 100 | 100 to 120 | 100 to 120
5.70 to 6.00 | Fc1ccc(-c2nc(-c3nccs3)n(Cc3ccccc3F)n2)nc1 [Compound I-38] | 40 to 60 | 80 to 100 | 100 to 120

The remaining lines, values behind:

SMILES | pEC50 | inhibition at 1 µM [%] | inhibition at 3 µM [%] | inhibition at 10 µM [%]
Fc1ccccc1Cn1nc(-c2ncccn2)nc1-c1cscn1 [Compound I-3] | 5.70 to 6.00 | 40 to 60 | 80 to 100 | 100 to 120
Fc1ccccc1Cn1nc(-c2ccccn2)nc1-c1cocn1 [Compound I-12, 4-(1-(2-fluorobenzyl)-3-(pyridin-2-yl)-1H-1,2,4-triazol-5-yl)oxazole] | > 6.00 | 40 to 60 | 80 to 100 | 100 to 120
Fc1ccccc1Cn1nc(-c2ccccn2)nc1-c1nccs1 [Compound I-25] | > 6.00 | 40 to 60 | 80 to 100 | 100 to 120
Fc1ccccc1Cn1nc(-c2ccccn2)nc1-c1cscn1 [Compound I-4] | > 6.00 | 60 to 80 | 100 to 120 | –
Fc1ccccc1Cn1nc(-c2ccccn2)nc1-c1ccccn1 [Compound I-1] | 5.70 to 6.00 | 20 to 40 | 60 to 80 | 100 to 120
Fc1ccccc1Cn1nc(-c2ccccn2)nc1-c1ncco1 [Compound I-6] | 5.70 to 6.00 | 20 to 40 | 60 to 80 | 100 to 120
Fc1ccccc1Cn1nc(-c2ccccn2)nc1-n1cncn1 [Compound I-50, 2′-(2-fluorobenzyl)-5′-(pyridin-2-yl)-2′H-1,3′-bi(1′,2′,4-triazole)] | – | 10 to 20 | 20 to 40 | 60 to 80
